The text below walks through data of publication PMC8171317, “Total synthesis, isolation, surfactant properties, and biological evaluation of ananatosides and related macrodilactone-containing rhamnolipids” (Chemical Science, 2021).

Where two headings read alike, the source gives them in different places. Marks after values point to notes of the source that are not given here.

Data set [1] in a line: Surface tension and CMC, Fisher tensiometer, du Noüy ring method. In kind it is physicochemical. Also on record: γ CMC (surface tension at CMC): unit not given here. As to conditions: pH 7.0; synthetic samples. On the procedure: Biosurfactants are molecules that can associate with each other leading to the formation of micelles. They can also interact with surfaces between phases of different polarity such as the air/water or oil/water interface.[77] To gain quantitative insights into the surface-active properties of microbial glycolipids, the surface tensions at CMC (γCMC) of ananatoside A (1) and ananatoside B (2) were measured using a Fisher tensiometer by means of the du Noüy ring method. The CMC, referring to the concentration of surfactant at which micelles start to form, was determined from a plot of surface tension again each concentration. […] Consequently, the surface tension measurements were performed quickly to avoid the precipitation of ananatoside A (1) into the aqueous medium.

The test system of data set [2] is sheep blood erythrocytes. Kind of data set: Hemolytic activity. The class given is cell-based. On the procedure: Owing to their surfactant properties, glycolipids can break the membrane of red blood cells causing hemolytic activity.[18] To understand if the cytotoxicity of macrolactones 1, 4, 5β, and 6β was due to their surface tension activity, we evaluated the hemolytic potential of synthetic glycolipids 1–6 against sheep erythrocytes (Table 5). […] The non-cytotoxic rhamnolipid 3 was also found to exert a weak hemolytic activity (HC50 = 65 ± 6 μM). […]
Hemolytic Activity. The hemolytic activity of the synthetic surfactants was evaluated as previously described with small modifications.10 Defibrinated sheep blood (Oxoid) was centri fuged at 1000 × g for 5 min. The pellet containing erythrocytes was washed once and suspended in 1X PBS to obtain a 1% erythrocytes suspension. All samples were suspended in DMSO/PBS (5:1 v/v) and serially diluted in a 96 -well plate to obtain a range of co ncentrations from 1 mM to 7.8 µM.
The erythrocytes suspension (160 µL) was added to 40 µL of samples to obtain final concentrations […]
ranging between 200 µM and 1.56 µM. Triton X-100 was used as a positive hemolysis control.
The plate was then incubated at 37 °C with agitation at 150 rpm for 1 h and centrifuged at 1500 × g for 5 min. The supernatant was transferred in an empty plate and absorbance was measured at 540 nm using a Cytation3 microplate reader (Biotek). HC50 was calculated in comparison with the positive control. The experiment was performed in triplicate and repeated three times. […]

A short description of data set [3]: Cytotoxicity, resazurin assay. The class given is cell-based, human. Conditions: human, max tested 200 μM. As for the experimental part:
(§1) As the anticancer potential of microbial rhamnolipids has previously been reported,[16] we next sought to evaluate the in vitro cytotoxicity of our synthetic and natural glycolipids 1–6 against cancerous cell lines, i.e., human lung carcinoma (A549) and colorectal adenocarcinoma (DLD-1). The compounds were also tested against human normal skin fibroblasts (WS1) to estimate their selectivity towards cancer cells.
(§2) 4. Experimental Procedures for Biological Evaluation and Surfactant Properties. […]
(§3) Cell Culture. Human lung carcinoma (A549), human colorectal adenocarcinoma (DLD-1), and human normal skin fibroblasts (WS1) cell lines were obtained from the American Type Culture Collection (ATCC). All cell lines were cultured in minimum essential medium containing Earle’s […]
(§4) salts and L-glutamine (Mediatech Cellgro, VA), to which were added 10% foetal bovine serum (Hyclone), vitamins (1×), penicillin (100 IU•mL-1), streptomycin (100 µg•mL−1), essential amino acids (1×), and sodium pyruvate (1×) (Mediatech Cellgro, VA). Cells were kept at 37 °C in a humidified environment containing 5% CO2.
(§5) Cytotoxicity Assay. Exponentially growing A549, DLD-1 or WS1 cells were plated in 96-well microplates (Costar, Corning Inc.) at a density of 5 × 10^3 cells per well in 100 µL of culture medium and were allowed to adhere for 16 h prior treatment. Increasing concentrations of each compound in biotech DMSO (Sigma-Aldrich) were then added (100 µL per well) and the cells were incubated for 48 h. The final concentration of DMSO in the culture medium was maintained at 0.5% (v/v) to avoid solvent toxicity. Cytotoxicity was assessed using resazurin9 on an automated 96-well Fluoroskan Ascent F1TM plate reader (Labsystems) using excitation and emission wavelengths of 530 and 590 nm, respectively. Fluorescence was proportional to the cellular metabolic activity in each well. Survival percentage was defined as the fluorescence in experimental wells as compared to that in control wells after subtraction of blank values. Each experiment was carried out three times in triplicate. IC50 results were expressed as means ± standard deviation. […]

Data set [4] can be described thus: Emulsifying activity against hydrocarbon contaminants. In kind it is physicochemical. Conditions: cyclohexane and kerosene. As for the experimental part: Therefore, the emulsifying properties of microbial biosurfactants 1–3 were evaluated against light as well as heavy hydrocarbon contaminants such as cyclohexane and kerosene, respectively (see Fig. S7 ^†).

The nature of data set [5]: Cytotoxicity, resazurin assay, summary over cell lines. Conditions: human, DLD-1 and WS1 cells (summary over the three lines); A549, DLD-1 and WS1; read-out: Cytotoxicity IC50 against human cell lines. The class given is cell-based. As for the experimental part: as §1, §2, §3, §4, §5
In general terms: Resazurin is reduced to fluorescent resorufin, in cell work by metabolically active cells.

A short description of data set [6]: Dynamic light scattering (Zetasizer), hydrodynamic diameter of micelles. The class given is physicochemical. Conditions: pH 7.0; concentration 80 μM. The source says: In parallel to these experiments, we took advantage of dynamic light scattering (DLS) to evaluate the hydrodynamic diameter of biosurfactant micelles formed at concentrations above the CMC (Table 4).[79] DLS considers the intensity of light scattered by spherical particles, which prevents its application for highly polydisperse and non-spherical colloidal systems. […] Once again, due to its hydrophobicity, ananatoside A (1) was too polydisperse for conducting a proper distribution analysis, showing a Z-average value above 800 nm, which meant that the particles were aggregated in water at the tested concentration. Similar results were obtained for ananatoside A (1) when the DLS experiments were conducted in DMSO as the solvent.

Data set [7] deals with tomato leaf disks. Description: Extracellular ROS production, luminol chemiluminescence. In kind it is cell-based, Solanum lycopersicum. Conditions: 100 μM, monitored over 720 min. The text has this: Bacterial rhamnolipids, such as compound 3, trigger the plant immune system, which can ultimately lead to plant protection against diseases caused by fungal and bacterial pathogens.[23] As ananatoside A (1) and ananatoside B (2) share structural similarities with rhamnolipid 3 and because they have been isolated from P. ananatis cultures, an emerging plant pathogen causing important agricultural damage worldwide,[81] we wanted to investigate whether these bacterial glycolipids, along with our unprecedented series of synthetic rhamnolactones, could be perceived by the plant immune system. We relied on measuring the extracellular content of reactive oxygen species (ROS) produced by tomato plants (Solanum lycopersicum) following treatment with the synthetic compounds, as an early and important marker of plant immunity.[20,22,82] Tomato leaves were challenged with synthetic glycolipids 1–6 at concentrations of 100 μM and the production of ROS was monitored over a 720 min time frame (Fig. 5).
Fig. 5 Extracellular reactive oxygen species (ROS) production following treatment of tomato leaf disks with ananatoside A (1), ananatoside B (2), RhaC10C10 (3), and related macrodilactone-containing rhamnolipids (4–6). Production of ROS was measured in tomato leaf disks following treatment at 100 μM with synthetic glycolipids (1–6). MeOH (0.5%) was used as a control. ROS production was measured using the chemiluminescence of luminol and photon counts were expressed as relative luminescence units (RLUs). Data are mean ± SEM (n = 6). Experiments were independently realized three times with similar results. […]
Plant Material and Growth Conditions. Tomato plants (Solanum lycopersicum L var. Ailsa craig, Scotland) were grown on soil in growth chamber with white fluorescent light [200 μmol•(m−2 s−1)], under 16 h/8 h light/dark regime, 60% relative humidity , and a temperature of 24 /20 °C during four weeks prior treatment. Arabidopsis thaliana plants (ecotype Col -0) were grown on soil in growth chambers with white fluorescent light (150 μmol m−2 s−1), under 12 h/12 h light/dark regime, 60% relative humidity, and a temperature of 20/20 °C during six weeks prior treatment.
Reactive Oxygen Species (ROS) Production. ROS assays were performed on four-week old tomato plants or six-week old Arabidopsis plants. Briefly, tomato leaf disks of 6 mm diameter or Arabidopsis petiole sections of 5 mm long were cut and placed in a 96-well plate (Optiplate TM-96 white, PerkinElmer) containing 150 µL of distilled H2O and then incubated at rt for 24 h to reduce the wounding response.11 The elicitation solution containing 0.2 µg•mL−1 luminol (A4685-5 g, Sigma), […] (P6782, Sigma) and the tested glycolipids (1, 2, 3, 4, 5α, 5β, 6α or 6β) at 100 μM was prepared. Methanol (0.5%) was used as negative control. Prior elicitation, the incubating distilled H2O was carefully removed from each well, avoiding any tissue damage or desiccation. Then, the elicitation solution (150 µL) was quickly added to each well containing a leaf disk or a petiole. Luminescence (relative light units, RLU) was measured every 4

On the set-up of data set [8]: method as in PMID 17105155. Conditions: estimated; cited from earlier work.
The test system of data set [9] is human normal skin fibroblasts (WS1). Description: Cytotoxicity, resazurin assay. Conditions: 48 h, max tested 200 μM. The class given is cell-based. On the procedure:
as §1, §2, §3, §4, §5

Data set [10] concerns human lung carcinoma (A549). Description: Cytotoxicity, resazurin assay. The class given is cell-based. Conditions: 48 h, max tested 200 μM. On the procedure:
as §1, §2, §3, §4, §5

Data set [11] relates to human colorectal adenocarcinoma (DLD-1). Kind of data set: Cytotoxicity, resazurin assay. In kind it is cell-based. Conditions: 48 h, max tested 200 μM. On the procedure: as §1, §2, §3, §4, §5
[12] abbreviates: sheep blood erythrocytes, 1 h, 37 °C, max tested 200 μM.
Where [13] appears, read: DLD-1 colorectal adenocarcinoma cells.

Usually IC50 stands for the point on the concentration scale where inhibition reaches its midpoint. The term pKa denotes the negative logarithm of the acid dissociation constant. For `CCCCCCC[C@H](CC(=O)O)OC(=O)C[C@@H](CCCCCCC)O[C@@H]1O[C@@H](C)[C@H](O)[C@@H](O)[C@H]1O` [Compound 3, RhaC10C10], in [1], the “CMC (critical micelle concentration)” value worked out at 58 ± 1 µM. Also, the “γ CMC (surface tension at CMC)” value in data set [1] was 30 ± 1. For the same compound, the “Hemolysis (HC50 in μM) Erythrocytes” value in data set [2] (setting [12]) came out at 65 ± 6 µM. The IC50 at 48 h in data set [3] (A549 lung carcinoma cells), in data set [3] (setting [13]), in [3] (WS1 normal skin fibroblasts) and in data set [5] was more than 200 µM each time. The Emulsifying activity entry in [4] is “equally able to generate emulsions with cyclohexane and kerosene”. For the same compound, the “Z-Average (hydrodynamic diameter of micelles)” value in [6] amounted to 92.1 nm. Further, in [7], the “Extracellular ROS production” value is “triggered a long-lasting and strong production of ROS”. The pKa in [8] is 5.5.
Regarding `CCCCCCCC1CC(=O)OC2C(C)OC(OC(CCCCCCC)CC(=O)O1)C(O)C2O` (stereo not shown) [Compound 4], the “Hemolysis (HC50 in μM) Erythrocytes” value in [2] (setting [12]) came to 12.0 ± 0.7 µM. Further, the IC50 at 48 h in data set [3] (A549 lung carcinoma cells) was 56 ± 2 µM; in data set [3] (setting [13]), 70 ± 10 µM; in data set [3] (WS1 normal skin fibroblasts), 57 ± 1 µM; in data set [5], 50 to 112 µM.
Turning to `CCCCCCCC1CC(=O)OC2C(OC(CCCCCCC)CC(=O)O1)OC(C)C(O)C2O` (stereo not drawn) [Compound 5α], in data set [2] (setting [12]), the “Hemolysis (HC50 in μM) Erythrocytes” value was >200 ^d μM. Besides, the IC50 at 48 h in data set [3] (A549 lung carcinoma cells), in [3] (setting [13]) and in [3] (WS1 normal skin fibroblasts) was more than 200 µM each time. Further, the “Extracellular ROS production” value in [7] is “did not show a similar sensing pattern”.
As to `CCCCCCCC1CC(=O)OC2C(OC(CCCCCCC)CC(=O)O1)OC(C)C(O)C2O` (stereo not drawn) [Compound 5β], the “Hemolysis (HC50 in μM) Erythrocytes” value in data set [2] (setting [12]) was found to be 14 ± 2 µM. In addition, the IC50 in data set [9] was determined as 105 ± 5 µM; in data set [10], 103 ± 7 µM; in data set [11] it was 110 ± 2 µM. Moreover, the IC50 at 48 h in [5] lay within 50 to 112 µM. For the same compound, the “Extracellular ROS production” value in data set [7] is “induced a strong and long-lasting production of ROS following the initial burst at 200 min”.
As to `CCCCCCCC1CC(=O)OC2C(O)C(C)OC(OC(CCCCCCC)CC(=O)O1)C2O` (stereo not drawn) [Compound 6α], the “Hemolysis (HC50 in μM) Erythrocytes” value in data set [2] (setting [12]) is >200 ^d μM. Moreover, the IC50 in [9], in [10] and in data set [11] was more than 200 µM throughout.
`CCCCCCCC1CC(=O)OC2C(O)C(C)OC(OC(CCCCCCC)CC(=O)O1)C2O` (stereo not drawn) [Compound 6β]: the “Hemolysis (HC50 in μM) Erythrocytes” value in [2] (setting [12]) came to 12.3 ± 0.5 µM. The IC50 at 48 h was 112 ± 2 µM in data set [3] (A549 lung carcinoma cells), 112 ± 3 µM in [3] (setting [13]), 110 ± 1 µM in [3] (WS1 normal skin fibroblasts) and 50 to 112 µM in data set [5].
For the compound `COc1cc([C@@H]2c3cc4c(cc3[C@@H](O[C@@H]3O[C@@H]5CO[C@@H](C)O[C@H]5[C@H](O)[C@H]3O)[C@H]3COC(=O)[C@H]23)OCO4)cc(OC)c1O` [Etoposide, reference compound], the figures for the IC50 at 48 h in data set [3] (A549 lung carcinoma cells), in [3] (setting [13]) and in data set [3] (WS1 normal skin fibroblasts) were 1.2 µM, 27 µM and 34 µM, respectively.
For the compound Triton X-100 [reference compound], the “Hemolysis (HC50 in μM) Erythrocytes” value in [2] is reported as “c Half maximal inhibitory concentration measured on sheep blood erythrocytes. Triton X-100 was used as a positive control showing an HC50 value of 52 ± 2 μM”.
